From ChEMBL document CHEMBL1125524, “Adenosine A1 antagonists. 2. Structure-activity relationships on diuretic activities and protective effects against acute renal failure” (J Med Chem, 1992) come the findings set out here.

The structures appear in SMILES notation. pKi: −log10 of the molar value.

Test [1] relates to Rattus norvegicus. Description: Percent inhibition of Urea nitrogen by the compound given as ratio of UN value in treated to vehicle treated ones after intraperitoneal administration of 0.1 mg/kg of compound to rats(vehicle 151.5+/-7.4). In kind it is functional. The conditions noted are these: ip.
Test [2] deals with Rattus norvegicus. Description: Ratio of urinary excretion value (Na+ concentration) in treated rats to that in control rats, at a peroral dose of 1.6 mg/Kg. In kind it is functional, Urine.
In test [3] the test system is Rattus norvegicus. The test is described as follows: Oral diuretic activity was measured after oral administration of 1.6 mg/kg to rats(control volume is 0.97+/-0.05). The format is functional, Urine.
Test [4] concerns Rattus norvegicus. The test is described as follows: Oral diuretic activity was measured after oral administration of 0.4 mg/kg to rats(control volume is 0.96+/-0.09). The format is functional, Urine.
Test [5] has as its system Rattus norvegicus. The test is described as follows: Percent inhibition of Urea nitrogen by the compound given as ratio of UN value in treated to vehicle treated ones after intraperitoneal administration of 0.01 mg/kg of compound to rats(vehicle 141.3+/-8.3). In kind it is functional. The conditions noted are these: ip.
Test [6] relates to Rattus norvegicus. Description: Ratio of urinary excretion value (Na+ concentration) in treated rats to that in control rats, at a peroral dose of 0.4 mg/Kg. In kind it is functional, Urine.
Test [7] has as its system Rattus norvegicus. The test is described as follows: Serum creatinine concentration measured after intraperitoneal administration of 1 mg/kg of compound to rats(vehicle 5.07+/-0.33). In kind it is functional.
Test [8] relates to Rattus norvegicus. The test is described as follows: Serum creatinine concentration measured after intraperitoneal administration of 0.1 mg/kg of compound to rats(vehicle 4.82+/-0.17). The format is functional.
Test [9] has as its system Rattus norvegicus. The test is described as follows: Percent inhibition of serum creatinine by the compound given as ratio of Cr value in treated to vehicle treated ones after intraperitoneal administration of 0.01 mg/kg of compound to rats(vehicle 3.92+/-0.23). In kind it is functional. The note with it: ip.
Test [10] deals with Rattus norvegicus. The test is described as follows: Ratio of sodium ion/potassium ion concentration in treated rats to that in control rats, at a peroral dose of 1.6 mg/Kg. In kind it is functional.
The test system of test [11] is Rattus norvegicus. The test is described as follows: Effect on urinary excretion potassium and sodium after oral administration of 0.4 mg/kg to rats(potassium and sodium excretion in control rat is 0.147+/-0.015). The format is functional, Urine.
Test [12] is filed under the species Rattus norvegicus. Description: animal or person. The conditions noted are these: ip, read-out: Inhibition, dose 1 mg/kg, route intraperitoneal.
Test [13] concerns Rattus norvegicus. Description: Percent inhibition of serum creatinine by the compound given as ratio of Cr value in treated to vehicle treated ones after intraperitoneal administration of 0.1 mg/kg of compound to rats(vehicle 4.82+/-0.17). In kind it is functional. The conditions noted are these: ip.
In test [14] the test system is Rattus norvegicus. Description: Ratio of urinary excretion value (Na+ concentration) in treated rats to that in control rats, at a peroral dose of 0.1 mg/Kg. In kind it is functional, Urine.
Test [15] has as its system Rattus norvegicus. Description: Effect on urinary excretion potassium and sodium after oral administration of 1.6 mg/kg to rats(potassium and sodium excretion in control rat is 0.169+/-0.012). In kind it is functional, Urine.
Test [16] relates to Rattus norvegicus. The test is described as follows: Effect on urinary excretion potassium and sodium after oral administration of 0.1 mg/kg to rats(potassium and sodium excretion in control rat is 0.180+/-0.017). In kind it is functional, Urine.
Test [17] deals with Rattus norvegicus. Description: Ratio of urinary excretion value (urinary volume) in treated rats to that in control rats, at a peroral dose of 0.4 mg/Kg. The format is functional, Urine.
Test [18] has as its system Rattus norvegicus. The test is described as follows: Percent inhibition of Urea nitrogen by the compound given as ratio of UN value in treated to vehicle treated ones after intraperitoneal administration of 1 mg/kg of compound to rats(vehicle 195.8+/-14.4). In kind it is functional. The note with it: Rattus norvegicus, ip.
Test [19] relates to Rattus norvegicus. The test is described as follows: Ratio of sodium ion/potassium ion concentration in treated rats to that in control rats, at a peroral dose of 0.4 mg/Kg. The format is functional.
Test [20] has as its system Rattus norvegicus. Description: Urea nitrogen concentration measured after intraperitoneal administration of 1 mg/kg of compound to rats(vehicle 195.8+/-14.4). The format is functional.
For test [21], the system named is Rattus norvegicus. The test is described as follows: Ratio of urinary excretion value (urinary volume) in treated rats to that in control rats, at a peroral dose of 0.1 mg/Kg. In kind it is functional, Urine.
For test [22], the species on record is Rattus norvegicus. The test is described as follows: Ratio of sodium ion/potassium ion concentration in treated rats to that in control rats, at a peroral dose of 0.1. The format is functional.
Test [23] has as its system Rattus norvegicus. Description: Serum creatinine concentration measured after intraperitoneal administration of 0.01 mg/kg of compound to rats(vehicle 3.92+/-0.23). The format is functional.
The test system of test [24] is Rattus norvegicus. Description: Urea nitrogen concentration measured after intraperitoneal administration of 0.1 mg/kg of compound to rats(vehicle 151.5+/-7.4). In kind it is functional.
Test [25] concerns Rattus norvegicus. Description: Urea nitrogen concentration measured after intraperitoneal administration of 0.01 mg/kg of compound to rats(vehicle 141.3+/-8.3). The format is functional.
For test [26], the system named is Rattus norvegicus. The test is described as follows: Oral diuretic activity was measured after oral administration of 0.1 mg/kg to rats(control volume is 1.05+/-0.11). In kind it is functional, Urine.
Test [27] relates to Rattus norvegicus. The test is described as follows: Ratio of urinary excretion value (urinary volume) in treated rats to that in control rats, at a peroral dose of 1.6 mg/Kg. In kind it is functional, Urine.
A further test addresses Adenosine A2 receptor (Rattus norvegicus, UniProt P29276+P30543).
Test [28] concerns Rattus norvegicus. Description: Oral diuretic activity was measured after oral administration of 25 mg/kg to rats(control volume is 1.04+/-0.11). The format is functional, Urine.
Test [29] relates to Rattus norvegicus. The test is described as follows: Urea nitrogen concentration measured after intraperitoneal administration of 10 mg/kg of compound to rats(vehicle 97.7+/-8.7). In kind it is functional.
Test [30] relates to Rattus norvegicus. The test is described as follows: Effect on urinary excretion potassium and sodium after oral administration of 25 mg/kg to rats(potassium and sodium excretion in control rat is 0.095+/-0.009). In kind it is functional, Urine.
Test [31] deals with Rattus norvegicus. The test is described as follows: Percent inhibition of Urea nitrogen by the compound given as ratio of UN value in treated to vehicle treated ones after intraperitoneal administration of 10 mg/kg of compound to rats(vehicle 97.7+/-8.7). In kind it is functional. The note with it: ip.
Test [32] relates to Rattus norvegicus. Description: Ratio of urinary excretion value (urinary volume) in treated rats to that in control rats, at a peroral dose of 25 mg/Kg. In kind it is functional, Urine.
The test system of test [33] is Rattus norvegicus. Description: Ratio of urinary excretion value (Na+ concentration) in treated rats to that in control rats, at a peroral dose of 25 mg/Kg. The format is functional, Urine.
Test [34] deals with Rattus norvegicus. The test is described as follows: Ratio of sodium ion/potassium ion concentration in treated rats to that in control rats, at a peroral dose of 25 mg/Kg. The format is functional.
The test system of test [35] is Rattus norvegicus. Description: Percent inhibition of serum creatinine by the compound given as ratio of Cr value in treated to vehicle treated ones after intraperitoneal administration of 10 mg/kg of compound to rats(vehicle 2.74+/-0.27). The format is functional. The conditions noted are these: ip.
Test [36] relates to Rattus norvegicus. The test is described as follows: Serum creatinine concentration measured after intraperitoneal administration of 10 mg/kg of compound to rats(vehicle 2.74+/-0.27). The format is functional.

For orientation: pKi means the negative decadic logarithm of the Ki, by convention in mol/L. Low values mean a large Ki, high ones a small Ki. Consider `Cn1c(=O)c2nc(C34CC5CC(CC3C5)C4)[nH]c2n(C)c1=O`, for which the inhibition in vivo at 0.1 mg/kg worked out at 36% in the test on Rattus norvegicus [1] and 35% in the test on Rattus norvegicus [13]. Moreover, the T/C in the test on Rattus norvegicus [2] is 2.36; with Rattus norvegicus [6], 1.74; in the test on Rattus norvegicus [14] it was 0.91; with Rattus norvegicus [17], 1.66; in the test with Rattus norvegicus [21], 0.82; in the test on Rattus norvegicus [27], 2.34. Further, the Urine volume with Rattus norvegicus [3] came to 2.27 ml 6hr-1 100g-1; with Rattus norvegicus [4] it was 1.59 ml 6hr-1 100g-1; with Rattus norvegicus [26], 0.86 ml 6hr-1 100g-1. Further, the inhibition in vivo at 0.01 mg/kg in the test on Rattus norvegicus [5] stood at 6%; in the test on Rattus norvegicus [9], 10%. Further, the Cr in the test on Rattus norvegicus [7] worked out at 2.88 mg/dL; with Rattus norvegicus [8], 3.14 mg/dL; with Rattus norvegicus [23] it was 3.53 mg/dL. Moreover, the “Na+/K+” value with Rattus norvegicus [10] is given as 1.67; with Rattus norvegicus [19] it was 1.54; in the test filed under Rattus norvegicus [22], 0.97. For the same molecule, the results for the Na with Rattus norvegicus [11], in the test on Rattus norvegicus [15] and with Rattus norvegicus [16] were 0.257 m equiv 6hr-1 100g-1, 0.398 m equiv 6hr-1 100g-1 and 0.163 m equiv 6hr-1 100g-1, respectively. Also, the inhibition in vivo at 1 mg/kg in the test listed under Rattus norvegicus [12] came to 43%; in the test on Rattus norvegicus [18] it was 40%. For the same molecule, the UN with Rattus norvegicus [20] is 116.7 mg/dL; with Rattus norvegicus [24], 97.3 mg/dL; in the test with Rattus norvegicus [25], 133.4 mg/dL. At Adenosine A2 receptor, this molecule gave a pKi of 5.92.

Regarding `CCCn1c(=O)c2[nH]c(-c3ccc(OCC(=O)NCCN)cc3)nc2n(CCC)c1=O` [XANTHINE AMINE CONGENER], the Urine volume in the test with Rattus norvegicus [28] amounted to 1.05 ml 6hr-1 100g-1. The UN in the test with Rattus norvegicus [29] is 70.1 mg/dL. In the test with Rattus norvegicus [30], the Na was found to be 0.113 m equiv 6hr-1 100g-1. Also, the inhibition in vivo at 10 mg/kg in the test on Rattus norvegicus [31] came out at 28%; with Rattus norvegicus [35], 24%. The T/C in the test with Rattus norvegicus [32] stood at 1.05; with Rattus norvegicus [33] it was 1.19. For the same molecule, the “Na+/K+” value in the test with Rattus norvegicus [34] amounted to 1.24. Besides, the Cr with Rattus norvegicus [36] turned out to be 2.07 mg/dL.
